Measurements reported in the supplement of paper PMC10307832.

Tests used:
Assay in all cases: relative viability (nuclei count vs DMSO), 5 days (fraction); higher = more cells survive
Ibrutinib + Trametinib = compound: C=CC(=O)N1CCC[C@@H](n2nc(-c3ccc(Oc4ccccc4)cc3)c3c(N)ncnc32)C1 [Ibrutinib] + CC(=O)Nc1cccc(-n2c(=O)n(C3CC3)c(=O)c3c(Nc4ccc(I)cc4F)n(C)c(=O)c(C)c32)c1 [Trametinib] (partner 0.02 µM)
Summary of the method: (§1)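 Lung cancer cell lines were seeded in 1536-well plates and dosed by pin tool the next day, with either a single drug or a fixed anchor-drug dose combined with five library-drug doses (not always all listed) spaced in √10 steps. Five days later, one step fixed the cells and stained their nuclei (final 0.05% Triton X-100, 1% formaldehyde, 1 ug/ml Hoechst), and nuclei were counted on 4× images. Relative viability is the nuclei count in treated wells divided by the count in vehicle wells, and each value is the median of duplicate plates.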

Ibrutinib + Foretinib = compound: C=CC(=O)N1CCC[C@@H](n2nc(-c3ccc(Oc4ccccc4)cc3)c3c(N)ncnc32)C1 [Ibrutinib] + COc1cc2c(Oc3ccc(NC(=O)C4(C(=O)Nc5ccc(F)cc5)CC4)cc3F)ccnc2cc1OCCCN1CCOCC1 [Foretinib] (partner 0.25 µM)
Summary of the method: as §1

PAC-1 + Linsitinib = compound: C=CCc1cccc(/C=N/NC(=O)CN2CCN(Cc3ccccc3)CC2)c1O [PAC-1] + C[C@]1(O)C[C@@H](c2nc(-c3ccc4ccc(-c5ccccc5)nc4c3)c3c(N)nccn32)C1 [Linsitinib] (partner 1 µM)
Summary of the method: as §1

Ibrutinib + OSI-027 = compound: C=CC(=O)N1CCC[C@@H](n2nc(-c3ccc(Oc4ccccc4)cc3)c3c(N)ncnc32)C1 [Ibrutinib] + COc1cccc2cc(-c3nc([C@H]4CC[C@H](C(=O)O)CC4)n4ncnc(N)c34)[nH]c12 [OSI-027] (partner 0.5 µM)
Summary of the method: as §1

| Cell Line | relative viability (Ibrutinib + Trametinib; first compound 0.005 µM) | relative viability (Ibrutinib + Trametinib; first compound 0.01581 µM) | relative viability (Ibrutinib + Trametinib; first compound 0.05 µM) | relative viability (Ibrutinib + Trametinib; first compound 0.1581 µM) | relative viability (Ibrutinib + Trametinib; first compound 0.5 µM) | relative viability (Ibrutinib + Foretinib; first compound 0.01581 µM) | relative viability (Ibrutinib + Foretinib; first compound 0.05 µM) | relative viability (Ibrutinib + Foretinib; first compound 0.5 µM) | relative viability (PAC-1 + Linsitinib; first compound 0.02 µM) | relative viability (PAC-1 + Linsitinib; first compound 0.06325 µM) | relative viability (PAC-1 + Linsitinib; first compound 0.2 µM) | relative viability (PAC-1 + Linsitinib; first compound 2 µM) | relative viability (Ibrutinib + OSI-027; first compound 0.01581 µM) | relative viability (Ibrutinib + OSI-027; first compound 0.05 µM) | relative viability (Ibrutinib + OSI-027; first compound 0.1581 µM) | relative viability (Ibrutinib + OSI-027; first compound 0.5 µM) | relative viability (Ibrutinib + Foretinib; first compound 0.005 µM) | relative viability (Ibrutinib + Foretinib; first compound 0.1581 µM) | relative viability (Ibrutinib + OSI-027; first compound 0.005 µM) |
| --- | --- | --- | --- | --- | --- | --- | --- | --- | --- | --- | --- | --- | --- | --- | --- | --- | --- | --- | --- |
| NCI-H2347 | 0.283 | 0.228 | 0.37 | 0.245 | 0.239 | 0.811 | 0.8 | 0.725 | 0.97 | 1.02 | 0.894 | 0.986 | 0.383 | 0.374 | 0.302 | 0.57 |  |  |  |
| HCC-827 | 0.49 | 0.489 | 0.416 | 0.509 | 0.196 | 0.993 | 0.813 | 0.165 | 0.981 | 0.966 | 0.932 | 0.942 | 0.67 | 0.648 | 0.783 | 0.45 | 1.04 | 1.03 | 0.727 |
| LOU-NH91 | 0.744 | 0.74 | 0.725 | 0.783 | 0.655 | 0.769 | 0.679 | 0.568 | 0.925 | 0.964 | 0.906 | 0.915 | 0.617 | 0.555 | 0.659 | 0.448 | 0.861 | 0.913 | 0.586 |
| NCI-H1651 | 0.858 | 0.807 | 0.765 | 0.776 | 0.773 | 0.931 | 0.896 | 0.615 | 0.823 | 0.933 | 0.992 | 1.12 | 0.663 | 0.792 | 0.685 | 0.768 | 0.928 | 0.882 | 0.624 |
| PC-3 [JPC-3] | 0.617 | 0.592 | 0.617 | 0.754 | 0.456 | 0.936 | 0.891 | 0.547 | 1.04 | 0.965 | 0.948 | 0.97 | 0.7 | 0.619 | 0.84 | 0.584 | 1.05 | 1.09 | 0.635 |
| NCI-H596 | 0.821 | 0.688 | 0.808 | 0.826 | 0.874 | 0.808 | 0.803 | 0.567 | 0.891 | 0.977 | 1.08 | 1.03 | 0.777 | 0.625 | 0.675 | 0.526 |  | 0.793 |  |
| NCI-H838 | 0.342 | 0.484 | 0.528 | 0.523 | 0.499 | 0.985 | 1.07 | 1.02 | 1.02 | 0.982 | 0.925 | 1.15 | 0.405 | 0.387 | 0.399 | 0.481 | 0.929 | 1.01 | 0.36 |
| NCI-H358 | 0.102 | 0.194 |  | 0.138 | 0.116 |  | 0.35 | 0.291 | 0.657 | 0.786 | 0.709 | 0.506 |  | 0.378 | 0.488 | 0.211 | 0.294 | 0.551 | 0.486 |
| NCI-H647 | 0.415 | 0.445 | 0.478 | 0.443 | 0.529 | 1.13 | 1.23 | 1.17 | 1.05 | 1.19 | 1.2 | 0.807 | 0.542 | 0.671 | 0.841 | 0.812 |  | 1.25 |  |
| HCC-366 | 0.34 | 0.366 | 0.317 | 0.394 | 0.391 | 0.909 | 0.958 | 0.881 | 0.587 | 0.699 | 0.441 | 0.772 | 0.84 | 0.934 | 0.802 | 0.96 | 1.04 | 0.866 | 0.803 |
